Results taken from paper PMC10970924 (Life, 2024).
Marks after values point to notes of the source that are not given here.

Legend:
porcine neuronal tubulin = assay: Tubulin polymerization assay (Cytoskeleton kit); format: biochemical; conditions: effector 10 µM; for Maximum Initial Rate of Polymerization V Max: tubulin 3 mg/mL, 37 °C
Description: To assess the effect of the test compounds on tubulin polymerization, a test kit from Cytoskeleton was used. The plate was pre-warmed to 37 °C for 20 min before starting the assay. Then, 10 µL of the compound of interest, at a 10-fold concentration in an assay buffer, was pipetted into the plate. For comparison, paclitaxel, a polymerization enhancer, and vinblastine, a tubulin polymerization inhibitor, were used. Both effectors were used at a concentration of 10 µM. The assay buffer served as a control. The plate was then incubated at 37 °C for 2 min, after which 100 µL of the diluted tubulin solution (containing 3 mg/mL of tubulin in 80 mM PIPES pH 6.9, 2 mM MgCl2, 0.5 mM EGTA, 1 mM GTP, and 7% glycerol) was added. The plate was then immediately placed in the plate reader. Absorbance was measured at 340 nm every minute for 61 readings on a Varioskan LUX (Thermo Scientific, Waltham, MA, USA) plate reader.

[1] = Neutralization of the ABTS radical; conditions: for EC50: 37 °C, 15 min, 738 nm, read-out: EC50 of half-maximal ABTS radical inhibition; for Trolox Equivalent Antioxidant Capacity (TEAC): ABTS radical neutralization, relative to Trolox
Description: Initially, an ABTS solution was prepared in water at a concentration of 7 mM. Subsequently, the radical cation ABTS^•+ was generated by mixing the original ABTS solution with 2.45 mM ammonium persulfate at a 1:1 ratio. This mixture was then allowed to stand in the dark at room temperature for 12–16 h before use. The diluted ABTS^•+ solution was prepared in a methanol/water mixture (1:1) reaching an optical density of 0.7 units at 738 nm (~0.7 mM). Next, various concentrations of compounds (ranging from 1000, 500, 250, 125, 62.5, 31.2, 15.6, to 7.8 μM) in a volume of 130 µL in a methanol/water mixture (1:1) were mixed with the ABTS radical cation solution (~0.7 mM) in a volume of 130 µL. The mixture was then incubated at 37 °C in a water bath for 15 min. The optical density was measured at 738 nm using the Infinite M200 PRO (TECAN, Zürich, Switzerland) plate reader. The percentage inhibition of ABTS absorption relative to the control was calculated. A percent inhibition vs. antioxidant concentration graph was plotted and the concentration of the antioxidant that suppresses the optical density of the ABTS radical by 50% (EC50) was determined. The Trolox Equivalent Antioxidant Capacity (TEAC) was also calculated.

Row | Compound | Maximum Initial Rate of Polymerization V Max (porcine neuronal tubulin) | EC50 [1] [µM] | Trolox Equivalent Antioxidant Capacity (TEAC) [1] | other results
1 | CC[C@]1(O)C[C@@H]2CN(CCc3c([nH]c4ccccc34)[C@@](C(=O)OC)(c3cc4c(cc3OC)N(C)[C@H]3[C@@](O)(C(=O)OC)[C@H](OC(C)=O)[C@]5(CC)C=CCN6CC[C@]43[C@@H]65)C2)C1 [Vinblastine, vinblastine] | 2.4 * mOD/Min |  |  | Inhibition of tubulin polymerization, fold (porcine neuronal tubulin): 3; Maximum Initial Rate of Polymerization V Max (porcine neuronal tubulin; listed as vinblastine): 2.4 mOD/Min
2 | CC(=O)O[C@H]1C(=O)[C@@]2(C)[C@H]([C@H](OC(=O)c3ccccc3)[C@]3(O)C[C@H](OC(=O)[C@H](O)[C@@H](NC(=O)c4ccccc4)c4ccccc4)C(C)=C1C3(C)C)[C@]1(OC(C)=O)CO[C@@H]1C[C@@H]2O [Paclitaxel, paclitaxel] | 8 * mOD/Min |  |  | Vmax, times higher than in the control reaction (porcine neuronal tubulin): 1.2; Maximum Initial Rate of Polymerization V Max (porcine neuronal tubulin; listed as paclitaxel): 8.0 mOD/Min
3 | O=C1O[C@H]([C@@H](O)CO)C(O)=C1O [Ascorbic acid] |  | 15.2 ± 4.8 | 1.03 | 
4 | O=c1c(O)c(-c2ccc(O)c(O)c2)oc2cc(O)cc(O)c12 [Quercetin] |  | 3.2 ± 1.6 | 4.9 | 
5 | Cc1c(C)c2c(c(C)c1O)CCC(C)(C(=O)O)O2 (stereo not drawn) [Trolox] |  | 15.7 ± 3.4 | 1.0 | 
